Results as given in patent publication US11434270B2, “Protein for neutralizing programmed necrocytosis promotion antibody, and application of protein” (SHANGHAI JW INFLINHIX CO., LTD., priority 2015, dated 2022).

How the values were obtained:
L929 cells = test: Apoptosis and necrosis test (live/dead staining, active caspase-3, flow cytometry) in L929 cells; assay type: cell-based, mouse
Procedure: (§1) In the presence of TNF or TNF peptide with or without 20 μM z-VAD-FMK (R & D Systems, Minneapolis, Minn.) or 20 μM Necrotatin-1 (PeproTech, Rocky Hill, N.J.) (Immunotools, Friesoythe, Germany), cells were incubated overnight (or the time shown in the incubation diagram). In some experiments, TNF was co-cultured with cells and the monoclonal antibody with indicated concentration or synovial fluid. Cells were stained using live/dead cell staining kit (Invitrogen, Paisley, UK) according to the manufacturer's manual and fixed using a cytofix/cytoperm fixation/permeabilization solution kit (BD Pharmingen, Oxford, UK). Intracellular staining was then performed using FITC-conjugated anti-caspase-3 antibody (Cell Signaling Technology, Danvers, Mass., USA). Cells were harvested by CyAn flow cytometer (Beckman Coulter, Fullerton, Calif.), and data were analysed by Flowjo (Tree Star Inc. Ashland, Oreg.).

cells [1] = test: Stimulation of cell proliferation; assay type: cell-based; conditions: summary table
[2] = system: cell necrosis-promoting antibody (244-12); test: ELISA binding of polypeptide to cell necrosis-promoting antibody; conditions: for binding to cell necrosis-promoting antibodies: summary table
Procedure: (§2) However, the reaction with synovial fluid of a control patient without autoantibodies (SF010) was negative. ELISA plates were coated with 2 μg/ml of P11-17, blocked with BSA, incubated with 244-12, SF024, SF045, SF010 at room temperature for 1 hour, and then identified with horseradish peroxidase […] anti-mouse or human IgG secondary antibody.

[3] = system: monoclonal antibody 244-12; test: Competitive inhibition ELISA of TNF binding to monoclonal antibody 244-12; conditions: plates coated with TNF, peptide added, then 244-12
Procedure: (§3) ELISA plates were coated with 2 μg/ml of TNF at 4° C. overnight, or at 37° C. for 2 hours, and then incubated with a monoclonal antibodies at 37° C. for 1 hour. A second antibody conjugated to HRP was used to detect the reaction. For the inhibition assay, TNFR1 or synovial fluid was added together with the monoclonal antibody.
METHODS: plates were coated with TNF, and the indicated peptides were added to each well, and then the monoclonal antibody 244-12 was added.

cells [4] = test: Apoptosis and necrosis test, cell line not stated; assay type: cell-based; conditions: summary table
Procedure: as §1

[5] = system: cell necrosis caused by cell necrosis-promoting antibody; test: Inhibition of cell necrosis caused by cell necrosis-promoting antibody; assay type: cell-based
Procedure: as §1

TNF receptors = test: L929 cell immunofluorescence microscopy: TNF/antibody binding to cell surface TNF receptors; assay type: cell-based, mouse
Procedure: At room temperature, 20 ng/ml of TNF and 2 μg/ml of mAb M26 or 244-12 were incubated for 1 hour. The mixture of TNF/M26 or TNF/244-12 were incubated on ice with L929 cells grown on coverslip for an another 15 minutes. The cells were fixed with 4% paraformaldehyde (PBS formulation) were for 10 minutes, blocked with phosphate buffer containing 0.5% BSA and 0.1% cold water fish gelatin for 15 minutes, and then incubated with rabbit anti-TNFR1 antibody (Abeam) for 1 hour. The cells were washed with PBS and then incubated with the relevant secondary antibody coupled to Alexa Fluor 488 or Alexa Fluor 568 (Invitrogen). Then the sample washed with PBS was mounted with Gelvatol/DABCO (Sigma-Aldrich). DNA was counterstained with DAPI (Sigma-Aldrich). All samples were analyzed by fluorescence microscopy at 60× using Nikon Eclipse 80i. Images were taken with NIS-Elements AR3.0 software using Hamamatsu camera.

TNF = biological target: T1, TNF (Homo sapiens, UniProt P01375); test: ELISA screening of monoclonal antibodies for binding to TNF; conditions: screening of 33 monoclonal antibodies
T1 construct: purchased Immunotools
T1 sequence (P01375 whole entry): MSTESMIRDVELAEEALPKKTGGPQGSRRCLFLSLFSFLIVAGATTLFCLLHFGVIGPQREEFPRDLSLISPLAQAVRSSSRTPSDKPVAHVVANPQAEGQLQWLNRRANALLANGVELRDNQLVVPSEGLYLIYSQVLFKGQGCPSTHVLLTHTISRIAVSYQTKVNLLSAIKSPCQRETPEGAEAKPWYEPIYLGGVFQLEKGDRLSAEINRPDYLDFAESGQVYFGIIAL
Procedure: as §3

[6] = system: C2812 cells (chondrocytes); test: Apoptosis test (active caspase-3) in C2812 chondrocytes; assay type: cell-based, human; conditions: antibody added to TNF
Procedure: as §1

[7] = system: cell necrosis-promoting antibodies present in joint fluid of arthritis patients; test: ELISA binding of polypeptide to autoantibodies in synovial fluid of arthritis patients; set-up: species or system human; conditions: plate coated with 2 μg/ml of P11-17
Procedure: as §2

Molecule | Stimulation of cell proliferation (cells [1]) | binding to cell necrosis-promoting antibodies [2] | competitive inhibition of binding of TNF to mAb 244-12 [3] | Apoptosis (cells [4]) | Necrosis (cells [4]) | Inhibition of cell necrosis ([5]; summary table) | also measured
CN1C(=O)C(Cc2c[nH]c3ccccc23)NC1=S (stereo not drawn) [Nec-1, Necrotatin-1, reference compound] |  |  |  |  |  |  | necrosis induced by antibody 244-12 + TNF (L929 cells; Nec-1 added to 244-12+TNF, necrosis converted into apoptosis): can be inhibited
DNQLVVPSEG [P13-1] | no | Yes | significantly inhibited | no | no | Yes | 
NQLVVPSEGL [P13-2] | no | Yes | significantly inhibited | no | no | Yes | 
QLVVPSEGLY [P13-3] | no | Yes | significantly inhibited | no | no | Yes | 
RDNQLVVPSE [P12-10] | no | Yes | significantly inhibited | no | no | Yes | 
Tumor necrosis factor α [TNFα] | Yes | Yes |  | Yes | Yes | no | cell fate of L929 cells (L929 cells; TNF alone): apoptosis
244-12: cell necrosis-promoting monoclonal antibody binding TNF epitope QLVVPSE; light chain SEQ ID NO: 9, heavy chain SEQ ID NO: 10 (antibody, listed as Homo sapiens) heavy: QIQLVQSGPELKKPGETVKISCKASGYTFTNYGMNWVKQAPGKGLKWMGWINTYTGEPTYADDFKGRFAFSLETSANTAYLQINNLRNEGMATYFCARHYRYAWFPYWGQGTLVTVSAAKTTPPSVYPLAPGCGDTTGSSVTLGCLVKGYFPESVTVTWNSGSLSSSVHTFPALLQSGLYTMSSSVTVPSSTWPSQTVTCSVAHPASSTTVDKKLEPSGPISTINPCPPCKECHKCPAPNLEGGPSVFIFPPNIKDVLMISLTPKVTCVVVDVSEDDPDVQISWFVNNVEVHTAQTQTHREDYNSTIRVVSTLPIQHQDWMSGKEFKCKVNNKDLPSPIERTISKIKGLVRAPQVYILPPPAEQLSRKDVSLTCLVVGFNPGDISVEWASNGHTEENYKDTAPVLDSDGSYFIYSKLNMKTSKWEKTDSFSCNVRHEGLKNYYLKKTISRSPGK light: DIQMTQSPASLSASVGETVTITCRASGNIHIYLAWYQQKQGKSPQLLVYNAKTLADGVPSRFSGSGSGTQYSLKINSLQPEDFGSYYCQHFWSIPWTFGGGTKLEIKRADAAPTVSIFPPSSEQLTSGGASVVCFLNNFYPKDINVKWKIDGSERQNGVLNSWTDQDSKDSTYSMSSTLTLTKDEYERHNSYTCEATHKTSTSPIVKSFNRNEC |  |  |  |  |  |  | TNF-induced apoptosis (expression of active caspase-3) (L929 cells; L929 cells, antibody added to TNF): blocked; cell fate of L929 cells (L929 cells; antibody added together with TNF): necrosis; direct binding of antibody to cell surface (TNF receptors; absence of TNF): cannot directly bind to cell surface; effect of antibody binding to TNF on binding of TNF to TNF receptors (TNF receptors; confocal micrograph, L929 cells, TNF present): did not affect; binding to TNF by ELISA test (TNF): strongest; TNF-induced apoptosis (expression of active caspase-3) [6]: blocked
QLQWLNRRANALLANGVELRDNQLVVPSEGLYLIYSQVLFKGQGCPSTHVLLTHTISRIAVSYQTKVNLLSAIKSPCQRE (protein) QLQWLNRRANALLANGVELRDNQLVVPSEGLYLIYSQVLFKGQGCPSTHVLLTHTISRIAVSYQTKVNLLSAIKSPCQRE | no | Yes |  | no | no | Yes | binding to purified cell necrosis-promoting antibody (244-12) ([2]; ELISA plate coated with 2 μg/ml of P11-17): can bind; reaction with synovial fluid of a control patient without autoantibodies ([7]; sample SF010): negative; binding to cell necrosis-promoting antibodies in joint fluid of arthritis patients ([7]; samples SF024, SF045): bind; Inhibition of cell necrosis ([5]; necrosis caused by purified 244-12 or by antibody in patients' synovial fluid (SF002, SF045)): can effectively inhibit cell necrosis
QLQWLNRRANALLANGVELRDNQLVVPSEGLYLIYSQVLFKGQGCPSTHVLLTHTISRIAVFHQTKVNLLSAIKSPCQRE (protein) QLQWLNRRANALLANGVELRDNQLVVPSEGLYLIYSQVLFKGQGCPSTHVLLTHTISRIAVFHQTKVNLLSAIKSPCQRE | no | Yes |  | no | no | Yes | 
